Assay [1] addresses full-length human RORγt (GAL4-DBD-RORγt fusion) in HEK293T cells (Homo sapiens (Human), UniProt P51449). Briefly: RORγt (full-length human) reporter assay, conditions A or B. The format is cell-based. To be noted: for IC50: HEK293T cells, read-out: RORγt (FL) Reporter Assay A or B, IC50; for inhibition at 3 µM: 3 μM compound concentration (footnote *). The method in brief: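 HEK293T cells expressing GAL4-DBD-RORγt fusion (96- or 384-well formats, DMEM/10% FBS) exposed to compound overnight (16–20 h). Firefly luciferase normalized to DMSO and saturating reference compound, then to Renilla; IC50 from dose curve, % inhibition versus DMSO.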

Assay [2] concerns the target human RORγt ligand binding domain (RORγt LBD) (Homo sapiens (Human), UniProt P51449). Briefly: RORγt ThermoFluor assay. On the technique in general: Differential scanning fluorimetry follows unfolding on heating by fluorescence.
In assay [3] the test system is IL-17 production by human CD4+ T cells under Th17 differentiation. Briefly: Human Th17 assay (IL-17 production by CD4 T cells). The format is cell-based. To be noted: 72 h, IL-17 after 3 days. The text has this:
The human Th17 assay tests the effect of RORγt modulatory compounds on IL-17 production by CD4 T cells under conditions which favor Th17 differentiation. Total CD4^+ T cells were isolated from the peripheral blood mononuclear cells (PBMC) of healthy donors using a CD4^+ T cell isolation kit II, following the manufacturer's instructions (Miltenyi Biotec). Cells were resuspended in a medium of RPMI-1640 supplemented with 10% fetal bovine serum, penicillin, streptomycin, glutamate, and β-mercaptoethanol and were added to 96-well plates at 1.5×10^5 per 100 μL per well. 50 μL of compound at titrated concentrations in DMSO were added into each well at final DMSO concentration at 0.2%. Cells were incubated for 1 hour, then 50 μL of Th17 cell differentiation medium was added to each well. The final concentrations of antibodies and cytokines (R&D Systems) in differentiation medium were: 3×10^6/mL anti-CD3/CD28 beads (prepared using human T cell activation/expansion kit, Miltenyi Biotec), 10 μg/mL anti-IL4, 10 μg/mL anti-IFNγ, 10 ng/mL IL1β, 10 ng/mL IL23, 50 ng/mL IL6, 3 ng/mL TGFβ and 20 U/mL IL2. Cells were cultured at 37° C. and 5% CO2 for 3 days. Supernatants were collected and the accumulated IL-17 in culture was measured by using MULTI-SPOT® Cytokine Plate following manufacture's instruction (Meso Scale Discovery). The plate was read using Sector Imager 6000, and IL-17 concentration was extrapolated from the standard curve. The IC50s were determined by GraphPad.

Assay [4] deals with Th17-dependent learned helplessness. To be noted: mice; cited from earlier work.
Assay [5] relates to obese diabetic mice. To be noted: cited from earlier work.
Where [6] appears, read: HEK-293T, read-out: RORγt (FL) Reporter Assay A or B, % inhibition.

We go through twelve molecules from patent publication US11034658B2, “Pyridinyl pyrazoles as modulators of RORγT” (Janssen Pharmaceutica NV, priority 2018, dated 2021).

Chain of full-length human RORγt (GAL4-DBD-RORγt fusion) in HEK293T cells (P51449 other isoform, or with tags, fused parts or gaps): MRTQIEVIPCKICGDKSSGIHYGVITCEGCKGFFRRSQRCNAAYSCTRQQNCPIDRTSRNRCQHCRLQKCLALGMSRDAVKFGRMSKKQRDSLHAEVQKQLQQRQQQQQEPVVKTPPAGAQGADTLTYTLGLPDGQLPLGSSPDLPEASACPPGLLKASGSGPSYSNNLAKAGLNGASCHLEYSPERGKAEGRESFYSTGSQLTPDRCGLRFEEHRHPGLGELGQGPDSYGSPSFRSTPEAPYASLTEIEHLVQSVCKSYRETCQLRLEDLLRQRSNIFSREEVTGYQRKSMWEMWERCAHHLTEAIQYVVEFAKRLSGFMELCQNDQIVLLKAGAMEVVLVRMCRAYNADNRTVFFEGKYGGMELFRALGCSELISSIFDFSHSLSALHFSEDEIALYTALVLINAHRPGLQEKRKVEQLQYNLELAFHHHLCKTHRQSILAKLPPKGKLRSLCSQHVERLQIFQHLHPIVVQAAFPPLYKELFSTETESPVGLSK
Chain of human RORγt ligand binding domain (RORγt LBD) (P51449 other isoform, or with tags, fused parts or gaps): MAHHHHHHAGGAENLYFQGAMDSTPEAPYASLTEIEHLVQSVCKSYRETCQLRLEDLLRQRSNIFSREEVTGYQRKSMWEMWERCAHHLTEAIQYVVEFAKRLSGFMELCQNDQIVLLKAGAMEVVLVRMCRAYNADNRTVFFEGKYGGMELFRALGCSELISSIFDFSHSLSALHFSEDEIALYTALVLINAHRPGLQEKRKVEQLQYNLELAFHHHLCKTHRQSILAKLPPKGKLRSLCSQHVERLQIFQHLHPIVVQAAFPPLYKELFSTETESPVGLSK

As usually defined, the IC50 is the concentration needed to halve the response being measured. A word on the inhibition: it is the change of the read-out against control, counted positive when it falls. For orientation: Kd means the constant that tells how readily two partners part at equilibrium. The low end stands for higher affinity, the high end for lower affinity. For the molecule `CCc1cc(C[C@@H](C)C(F)(F)F)ncc1-c1c(Cl)c(C(=O)NC[C@H]2CC[C@H](S(C)(=O)=O)CC2)nn1CC` (relative stereo) [Example 57, 4-Chloro-1-ethyl-5-(4-ethyl-6-((R*)-3,3,3-trifluoro-2-methylpropyl)pyridin-3-yl)-N-((1r,4R)-4-(methylsulfonyl)cyclohexyl)methyl)-1H-pyrazole-3-carboxamide], the concentration for half-maximal inhibition (IC50) in assay [1] was found to be 340 nM; in assay [3], 450 nM. Besides, the inhibition at 3 µM in assay [1] (setting [6]) is 43%. In assay [2], the Kd came out at 20 nM.
`CCc1cc(C[C@@H](C)C(F)(F)F)ncc1-c1c(C)c(C(=O)NC[C@H]2CC[C@H](S(C)(=O)=O)CC2)nn1CC` (relative stereo) [Example 58, 1-Ethyl-5-(4-ethyl-6-((R*)-3,3,3-trifluoro-2-methylpropyl)pyridin-3-yl)-4-methyl-N-((1r,4R)-4-(methylsulfonyl)cyclohexyl)methyl)-1H-pyrazole-3-carboxamide]: the values for the half-inhibitory concentration (IC50) in assay [1] and in assay [3] were greater than 2900 nM and 730 nM, respectively. In assay [1] (setting [6]), the inhibition at 3 µM was 23%. The same molecule registered an equilibrium dissociation constant (Kd) in assay [2] of 43 nM.
Take `CCc1cc(C[C@@H](C)C(F)(F)F)ncc1-c1c(Cl)c(C(=O)NC[C@]2(O)CC[C@@H](S(C)(=O)=O)CC2)nn1CC` (single isomer, unassigned) [Example 56, 4-Chloro-1-ethyl-5-(4-ethyl-6-((R*)-3,3,3-trifluoro-2-methylpropyl)pyridin-3-yl)-N-(((1s,4S)-1-hydroxy-4-(methylsulfonyl)cyclohexyl)methyl)-1H-pyrazole-3-carboxamide]: the IC50 in assay [1] came to 2300 nM; in assay [3] it was 370 nM. The inhibition at 3 µM in assay [1] (setting [6]) came to 30%. Moreover, the affinity in assay [2], expressed as Kd, was 120 nM.
Regarding `CCn1nc(C(=O)NC[C@H]2CC[C@H](S(C)(=O)=O)CC2)c(Cl)c1-c1cnc(C[C@H](C)C(F)(F)F)cc1OC` (single isomer, unassigned) [Example 62, 4-Chloro-1-ethyl-5-(4-methoxy-6-((S*)-3,3,3-trifluoro-2-methylpropyl)pyridin-3-yl)-N-((1r,4r)-4-(methylsulfonyl)cyclohexyl)methyl)-1H-pyrazole-3-carboxamide], the concentration for half-maximal inhibition (IC50) in assay [1] is 180 nM; in assay [3] it was 81 nM. Further, the inhibition at 2 µM in assay [1] (HEK-293T, 2 μM compound concentration, read-out: RORγt (FL) Reporter Assay A or B, % inhibition) stood at 89%. In assay [2], this molecule returned an equilibrium dissociation constant (Kd) of 17 nM.
As to `CCn1nc(C(=O)NC[C@]2(O)CC[C@@H](S(C)(=O)=O)CC2)c(C)c1-c1cnc(CC(C)(C)C(F)(F)F)cc1OC(F)F` [Example 8, 5-(4-(Difluoromethoxy)-6-(3,3,3-trifluoro-2,2-dimethylpropyl)pyridin-3-yl)-1-ethyl-N-(((1s,4s)-1-hydroxy-4-(methylsulfonyl)cyclohexyl)methyl)-4-methyl-1H-pyrazole-3-carboxamide], the IC50 is 56 nM in assay [1] and 51 nM in assay [3]. In addition, in assay [1] (setting [6]), the inhibition at 3 µM turned out to be 100%. The same molecule yielded an equilibrium dissociation constant (Kd) in assay [2] of 11 nM.
Turning to `CCn1nc(C(=O)NC[C@H]2CC[C@H](S(C)(=O)=O)CC2)c(Cl)c1-c1cnc(CC(C)(C)C(F)(F)F)cc1OC(F)F` [Example 9, 4-Chloro-5-(4-(difluoromethoxy)-6-(3,3,3-trifluoro-2,2-dimethylpropyl)pyridin-3-yl)-1-ethyl-N-(((1r,4r)-4-(methylsulfonyl)cyclohexyl)methyl)-1H-pyrazole-3-carboxamide], the IC50 came to 8.1 nM in assay [1] and 11 nM in assay [3]. The inhibition at 3 µM in assay [1] (setting [6]) is 117%. This molecule had a Kd in assay [2] of 0.75 nM.
Consider `CCn1nc(C(=O)NC[C@]2(O)CC[C@@H](S(C)(=O)=O)CC2)c(Cl)c1-c1cnc(CC(C)(C)C(F)(F)F)cc1OC(F)F` [Example 10, 4-Chloro-5-(4-(difluoromethoxy)-6-(3,3,3-trifluoro-2,2-dimethylpropyl)pyridin-3-yl)-1-ethyl-N-(((1s,4s)-1-hydroxy-4-(methylsulfonyl)cyclohexyl)methyl)-1H-pyrazole-3-carboxamide], for which the results for the half-maximal inhibitory concentration (IC50) in assay [1] and in assay [3] were 14 nM and 48 nM, respectively. Further, in assay [1] (setting [6]), the inhibition at 3 µM is 98%. Binding in assay [2] was put at a Kd of 3.2 nM.
In the case of `CCn1nc(C(=O)NC[C@H]2CC[C@H](S(C)(=O)=O)CC2)c(C)c1-c1cnc(CC(C)(C)C(F)(F)F)cc1OC(F)F` [Example 13, 5-(4-(Difluoromethoxy)-6-(3,3,3-trifluoro-2,2-dimethylpropyl)pyridin-3-yl)-1-ethyl-4-methyl-N-(((1r,4r)-4-(methylsulfonyl)cyclohexyl)methyl)-1H-pyrazole-3-carboxamide], the concentration for half-maximal inhibition (IC50) in assay [1] worked out at 11 nM; in assay [3] it was 38 nM. The inhibition at 3 µM in assay [1] (setting [6]) was 91%. The Kd in assay [2] is 2.2 nM.
`CCn1nc(C(=O)NC[C@H]2CC[C@H](S(C)(=O)=O)CC2)c(C)c1-c1cnc(CC(C)(C)C(F)(F)F)cc1C(F)F` [Example 29, 5-(4-(Difluoromethyl)-6-(3,3,3-trifluoro-2,2-dimethylpropyl)pyridin-3-yl)-1-ethyl-4-methyl-N-(((1r,4r)-4-(methylsulfonyl)cyclohexyl)methyl)-1H-pyrazole-3-carboxamide]: the IC50 in assay [1] amounted to 360 nM; in assay [3], 210 nM. Further, in assay [1] (setting [6]), the inhibition at 3 µM amounted to 39%. Also, the Kd in assay [2] stood at 24 nM.
Regarding `CCn1nc(C(=O)NC[C@H]2CC[C@H](S(C)(=O)=O)CC2)c(Cl)c1-c1cnc(CC(C)(C)C(F)F)cc1OC(F)F` [Example 37, 4-Chloro-5-(6-(3,3-difluoro-2,2-dimethylpropyl)-4-(difluoromethoxy)pyridin-3-yl)-1-ethyl-N-(((1r,4r)-4-(methylsulfonyl)cyclohexyl)methyl)-1H-pyrazole-3-carboxamide], the IC50 in assay [1] came to 21 nM; in assay [3] it was 34 nM. For the same molecule, the inhibition at 3 µM in assay [1] (setting [6]) was found to be 98%. In assay [2], this molecule returned a Kd of 3.5 nM.
In the case of `CC(=O)Nc1nc(C)c(S(=O)(=O)Nc2ccc(C(O)(C(F)(F)F)C(F)(F)F)cc2)s1` [SR1001], in assay [4], the Th17-dependent learned helplessness entry is reported as “reduced Th17-dependent learned helplessness”.
For `CC(=O)N1CCN(Cc2ccc(-c3ccc(C(O)(C(F)(F)F)C(F)(F)F)cc3)cc2)CC1` [SR1555], in assay [5], the body weight result was “reduced body weight”, the fat mass entry was “significant reduction in fat mass”, the food intake entry is on record as “modest reduction in food intake” and the insulin sensitivity result was “improved insulin sensitivity”.
